{
  "source": "patent US20240083933A1",
  "about": "“DISACCHARIDES FOR TREATING BONE DISEASES” (UNIVERSITE DE PICARDIE JULES VERNE, priority 2020, published 2024)",
  "key": {"[1]": {"test_system": "HOb cells", "experiment": "Cytotoxicity, MTT test", "assay_type": "cell-based, human", "conditions": "30 μM, culture or mineralizing medium, D2, D4, D7, D14", "description": "In order to study the toxicity of DP2, cell viability was determined using the MTT test (3-(4,5-dimethyl-2-thiazolyl)-2,5-diphenyl-2H-tetrazolium bromide). The HOb cells were seeded in 48-well plates (10,000 cells per well), two days later the cells were treated with DP2 30 μM and the MTT test was carried out on D2, D4, 7 and D14 post-treatment.\nAfter washing the cells with DMEM (Dulbecco's Modified Eagle Medium) without phenol red, 250 μl of the diluted MTT solution were added to each well and the plate is incubated at 37° C. with 5% CO2 for 1 hour. The amount of MTT reduced in formazan is proportional to living cells. The purple formazan crystals were solubilized in 220 μl of DMSO and after stirring to homogenize the coloration, the absorbance was measured at 560 nm (Envision, PerkinElmer). The cytotoxicity was assessed by comparing the cell viability between the control group and the experimental group.\nBefore determining whether our molecule alters the survival of osteoblastic cells, its cytotoxicity was tested on the HOb cells by the MTT and WST-1 tests. The cells were treated with DP2 at 30 μM with the culture medium (Ctrl) or the mineralizing medium (Min) for 2, 4, 7 and 14 days (D)."}, "[2]": {"test_system": "MC3T3-E1 cells", "experiment": "Calcium assay (pro-calcifying activity) on mouse pre-osteoblastic cells", "assay_type": "cell-based", "conditions": "for increase in calcification relative to the mineralizing medium: MC3T3-E1, 25 days", "description": "FIG. 1 represents the calcium dosage in the MC3T3-E1 culture medium (in […] of protein per well) after 9 days of exposure of these cells to 4 mM of Pi ([…]) (control+Pi) and 4 mM of Pi in the presence of 30 μM of each of the compounds referenced DP2SNA, DP2NA, DP2K and DP2S;\nFor all experiments, a mouse pre-osteoblastic cell line (MC3T3-E1, ATCC) and human primary osteoblastic cells (HOb, Promocell) were used. The mouse pre-osteoblastic cells were cultured in 75 cm^2 flasks, containing 15 mL of α-MEM medium (M4526, SIGMA) and 10% fetal calf serum (FCS), containing 1% Penicillin/Streptomycin antibiotics and 1% glutamine. Similarly, human HOb cells were cultured in 75 cm 2 flasks containing 15 mL of proliferation medium (Human Osteoblast Proliferation Medium, PromoCell). The cells are maintained in the oven at 37° C., with 5% CO2 and 90% humidity. The medium was changed every three days.\nMC3T3-E1 cells were seeded in 6-well plates at 63,700 cells/well to be treated in order to extract RNA or for alkaline phosphatase enzymatic activity assay and in 48-well plates for the calcium assay at 5250 cells/well. The HOb cells were seeded at 182,000 cells/well in 6-well plates for the extraction of RNA or for the alkaline phosphatase enzymatic activity assay; at 15,000 cells/well in 48-well plates for the calcium assay; at 10,000 cells/well in 48-well plates for the MTT test or the WST-1 test and at 100,000 cells/well in 6-well plates for the protein extraction or for the fluorescence.\nIn order to induce the mineralization, the MC3T3-E1 cells were treated with α-MEM medium containing 5% FCS to which 10 mM of β-glycerophosphate and 50 μg/mL of ascorbic acid are added. The HOb cells were treated with the “Osteoblast mineralization medium” (Promocell). […] After filtration, the cells were treated with the respective media (500 μL per well of the 48-well plate and 2 mL per well of the 6-well plate).\nThe release of calcium in the culture medium of mouse pre-osteoblastic cells (MC3T3-E1) has been studied.\nAn increase in calcification was observed, relative to the mineralizing medium (FIG. 2), in the presence of DP2R0 at 15 μM (40±2%), at 30 μM (28±18%) and at 50 μM (40±28%), and DP2NA at 15 μM (15±14%), at 30 μM (33±12%) and at 50 μM (10±19%)."}, "[3]": {"test_system": "smooth muscle cells", "experiment": "Calcium production by smooth muscle cells", "assay_type": "cell-based", "conditions": "non-calcifying control condition; DP2 5-50 μM (FIG. 5)", "excerpt": "FIG. […]\nThis therefore reinforces the hypothesis that DP2 will not induce any calcification on cells other than the osteoblastic cells."}},
  "data": [
    {"smiles": "CCCO[C@H]1OC(CO)[C@@H](O[C@@H]2OC(CO)[C@@H](O)C(O)C2NC(C)=O)C(O)C1OC(C)=O", "note": "(stereo partly drawn) [DP2, n-propyl, 2-O-acetyl-α-D-Glucopyranoside, 4-O-(2-acetamido-2-deoxy-β-D-glucopyranosyl)]", "values": [
      {"measurement": "cell viability, MTT test", "setting": "[1]", "value": "no significant difference"},
      {"measurement": "production of calcium by the MC3T3-E1 cells (calcium dosage in culture medium)", "setting": "[2]; 9 days, 4 mM Pi, 30 μM compound, vs control+Pi (FIG. 1)", "value": "increase the production of calcium"},
      {"measurement": "increase in calcification relative to the mineralizing medium", "setting": "[2]; 15 μM", "value": "40±2", "unit": "%"},
      {"measurement": "increase in calcification relative to the mineralizing medium", "setting": "[2]; 30 μM", "value": "28±18", "unit": "%"},
      {"measurement": "increase in calcification relative to the mineralizing medium", "setting": "[2]; 50 μM", "value": "40±28", "unit": "%"},
      {"measurement": "pro-calcifying action on the smooth muscle cells", "setting": "[3]", "value": "no pro-calcifying action"}
    ]}
  ]
}
